Measured values as given in article PMC9399069, “Imaging PARP with [^18F]rucaparib in pancreatic cancer models” (European Journal of Nuclear Medicine and Molecular Imaging, 2022).
“And” between values parts separate entries of the source, which are not always exact repeats. Identical values can stand only once.

Key:
[1] = system: AsPC1 cells; assay: Cell retention of [18F]rucaparib and [18F]olaparib in AsPC1 cells; assay type: cell-based, human
Description: (§1) AsPC1 (1 × 10^5 cells/well) and PSN1 cells (7.5 × 10^4 cells/well) were exposed to [^18F]rucaparib (100 kBq, 4.8 GBq/μmol; [^TotalF]rucaparib final concentration: 258 nM) or [^18F]olaparib (400 kBq, 2.8 GBq/μmol: [^TotalF]olaparib final concentration: 242 nM) in 24-well plates at 37 °C for 30 min. Cell culture medium was removed, and cells were washed with PBS, followed by the addition of fresh medium (300 μL). Cells were then further incubated at 37 °C. Cell culture medium was removed, and cells were washed with PBS at different times (0–3 h). Cells were lysed using RIPA buffer for 15 min at room temperature, and the amount of ^18F in the cell lysates was measured as above.

[2] = system: PSN1 cells; assay: In vitro uptake and binding selectivity of [18F]rucaparib in PSN1 cells; assay type: cell-based, human; conditions: 37 °C
Description: (§2) AsPC1 (1 × 10^5 cells/well) and PSN1 cells (7.5 × 10^4 cells/well) were seeded separately in 24-well plates (in 300 μL growth medium) and allowed to adhere for at least 20 h. […] To assess [^18F]rucaparib-binding selectivity, unlabelled PARP inhibitors, IMPDH2 or ALDH2 inhibitor, were added (100 μM, in 270 μL growth medium) for 45 min at 37 °C before addition of [^18F]rucaparib (156 kBq, 6.8 GBq/μmol; [^TotalF]rucaparib final concentration: 100 nM), and the cells were incubated at 37 °C for a further 45 min. Cell culture medium was removed, and cells were washed with PBS. Cells were lysed using RIPA buffer for 15 min at room temperature, and the amount of ^18F in the cell lysates was measured using an automated gamma counter (PerkinElmer), normalising for the number of cells.
(§3) Cells were lysed and the amount of ^18F in the cell lysates was measured as above.

[3] = system: AsPC1 cells; assay: In vitro uptake and binding selectivity of [18F]rucaparib in AsPC1 cells; assay type: cell-based, human; conditions: [TotalF]rucaparib 258 nM, 37 °C, Fig. 1B
Description: as §2, §3

[4] = system: PSN1 xenografts; assay: Ex vivo biodistribution of [18F]rucaparib in PSN1 tumour-bearing mice; parameters: species or system Balb/c nu/nu mice; conditions: for Ex vivo biodistribution, Blood / Ex vivo biodistribution, Bone / Ex vivo biodistribution, Fat / Ex vivo biodistribution, Heart / Ex vivo biodistribution, Kidney / Ex vivo biodistribution, Large intestine / Ex vivo biodistribution, Lung / Ex vivo biodistribution, Muscle / Ex vivo biodistribution, Pancreas / Ex vivo biodistribution, Small intestine / Ex vivo biodistribution, Tumour: i.v.; for Tumour uptake / Tumour-to-blood (T/B) ratio: PSN1 xenografts; for Tumour uptake: mean ± SD
Description: Female Balb/c nu/nu (OlaHsd-Foxn1^nu) mice, aged 4–6 weeks, were purchased from Envigo (UK). Animals were housed in IVC cages, up to 6 per cage, in an artificial day–night cycle facility. Food and water were provided ad libitum.
PSN1 cells were harvested using trypsin, washed twice with PBS and reconstituted in PBS:Matrigel® Matrix High Concentration (1:1). Cell suspensions (PSN1: 2 × 10^6 cells/ 100 μL) were injected subcutaneously in the lower right flank.
Animals were administered [^18F]rucaparib (0.87–11.38 MBq in 100 μL of PBS, Am = 1.5–30.9 GBq/μmol) by intravenous injection via the lateral tail vein. To evaluate the selectivity of tumour uptake, an excess of unlabelled rucaparib or olaparib (0.5 mg) was co-administered as a blocking agent in some animals. Dynamic PET images (1 h) were acquired using a MILabs VECTor^4 camera, equipped with an ultra-high resolution rat/mouse collimator (1.8 mm), followed by a cone-beam CT scan (55 kV, 0.19 mA) for anatomical reference and attenuation correction. Animal was anesthetised by 4% isoflurane gas (0.5 L/min O2) and maintained at 2.5% at 37 °C throughout the duration of image acquisition. PET images were reconstructed using U-SPECT-Rec3.22 software (MILabs, Utrecht, The Netherlands), applying a pixel-based algorithm, ordered subset expectation maximisation (OSEM) with 6 subsets, 4 iterations and 0.8 mm voxel size for fluorine-18 (energy window settings 477.9–584.1 keV). Reconstructed PET and CT images were viewed and analysed using PMOD v.3.37 (PMOD Technologies, Zurich, Switzerland).
Either 1 h or 2 h after radiolabelled compound injection, animals were euthanised. Selected organs, tissues and blood were removed, and the percentage of the injected dose per gram of tissue (%ID/g) was determined, using a HIDEX automated gamma counter.

[5] = system: PSN1 xenografts; assay: Dynamic PET/CT imaging of [18F]rucaparib in PSN1 tumour-bearing mice; assay type: in vivo, Balb/c nu/nu mice
Description: Female Balb/c nu/nu (OlaHsd-Foxn1^nu) mice, aged 4–6 weeks, were purchased from Envigo (UK). Animals were housed in IVC cages, up to 6 per cage, in an artificial day–night cycle facility. Food and water were provided ad libitum. PSN1 cells were harvested using trypsin, washed twice with PBS and reconstituted in PBS:Matrigel® Matrix High Concentration (1:1). Cell suspensions (PSN1: 2 × 10^6 cells/ 100 μL) were injected subcutaneously in the lower right flank. […] Animal was anesthetised by 4% isoflurane gas (0.5 L/min O2) and maintained at 2.5% at 37 °C throughout the duration of image acquisition. PET images were reconstructed using U-SPECT-Rec3.22 software (MILabs, Utrecht, The Netherlands), applying a pixel-based algorithm, ordered subset expectation maximisation (OSEM) with 6 subsets, 4 iterations and 0.8 mm voxel size for fluorine-18 (energy window settings 477.9–584.1 keV). Reconstructed PET and CT images were viewed and analysed using PMOD v.3.37 (PMOD Technologies, Zurich, Switzerland).

[6] = system: PSN1 cells; assay: Cell retention of [18F]rucaparib and [18F]olaparib in PSN1 cells; assay type: cell-based, human
Description: as §1

[7] = 1 h post-injection, individual animals (n=3)
[8] = 2 h post-injection, individual animals (n=6)
[9] = PSN1 tumour-bearing mice, i.v., n=3
[10] = PSN1 tumour-bearing mice, i.v., n=3, biphasic

Structure (SMILES): CNCc1ccc(-c2[nH]c3cc([18F])cc4c3c2CCNC4=O)cc1 [[^18F]rucaparib]
- Uptake and retention compared with [TotalF]olaparib [1]: 100 fold
- Cellular uptake (time) ([2]; PSN1 cells, [TotalF]rucaparib 258 nM, Fig. 1B): < 1 min
- Cell association of [18F]rucaparib ([2]; PSN1 versus AsPC1 cells, 64 nM and 258 nM, 30 min): higher in PSN1 cells than in AsPC1 cells
- Cellular uptake (time) [3]: < 1 min
- Ex vivo biodistribution, Blood [4, 7]: 3.51 %ID/g and 3.67 %ID/g and 3.59 %ID/g
- Ex vivo biodistribution, Bone [4, 7]: 4.90 %ID/g and 6.79 %ID/g and 5.26 %ID/g
- Ex vivo biodistribution, Fat [4, 7]: 6.53 %ID/g and 4.98 %ID/g and 6.82 %ID/g
- Ex vivo biodistribution, Heart [4, 7]: 13.27 %ID/g and 16.24 %ID/g and 17.47 %ID/g
- Ex vivo biodistribution, Kidney [4, 7]: 17.24 %ID/g and 30.17 %ID/g and 36.00 %ID/g
- Ex vivo biodistribution, Large intestine [4, 7]: 12.50 %ID/g and 16.33 %ID/g and 14.08 %ID/g
- Ex vivo biodistribution, Lung [4, 7]: 17.76 %ID/g and 25.71 %ID/g and 27.51 %ID/g
- Ex vivo biodistribution, Muscle [4, 7]: 2.63 %ID/g and 4.25 %ID/g and 3.13 %ID/g
- Ex vivo biodistribution, Pancreas [4, 7]: 19.47 %ID/g and 23.54 %ID/g and 23.22 %ID/g
- Ex vivo biodistribution, Small intestine [4, 7]: 33.79 %ID/g and 46.24 %ID/g
- Ex vivo biodistribution, Tumour [4, 7]: 5.25 %ID/g and 6.05 %ID/g and 5.16 %ID/g
- Ex vivo biodistribution, Blood [4, 8]: 0.92 %ID/g and 0.49 %ID/g and 0.48 %ID/g and 1.57 %ID/g and 0.51 %ID/g and 0.44 %ID/g
- Ex vivo biodistribution, Bone [4, 8]: 3.49 %ID/g and 2.71 %ID/g and 2.38 %ID/g and 3.10 %ID/g and 2.18 %ID/g and 2.26 %ID/g
- Ex vivo biodistribution, Fat [4, 8]: 1.32 %ID/g and 0.74 %ID/g and 0.84 %ID/g and 1.78 %ID/g and 1.03 %ID/g and 0.86 %ID/g
- Ex vivo biodistribution, Heart [4, 8]: 2.44 %ID/g and 2.15 %ID/g and 1.73 %ID/g (2×) and 1.61 %ID/g and 1.27 %ID/g
- Ex vivo biodistribution, Kidney [4, 8]: 7.28 %ID/g and 6.56 %ID/g and 5.54 %ID/g and 7.41 %ID/g and 4.70 %ID/g and 4.13 %ID/g
- Ex vivo biodistribution, Large intestine [4, 8]: 23.81 %ID/g and 19.26 %ID/g and 15.83 %ID/g and 25.44 %ID/g and 36.97 %ID/g and 43.06 %ID/g
- Ex vivo biodistribution, Lung [4, 8]: 8.77 %ID/g and 6.24 %ID/g and 4.58 %ID/g and 9.27 %ID/g and 5.27 %ID/g
- Ex vivo biodistribution, Muscle [4, 8]: 2.51 %ID/g and 1.58 %ID/g and 1.90 %ID/g and 2.77 %ID/g and 1.57 %ID/g (2×)
- Ex vivo biodistribution, Pancreas [4, 8]: 13.99 %ID/g and 9.45 %ID/g and 9.78 %ID/g and 11.07 %ID/g and 9.35 %ID/g and 7.70 %ID/g
- Ex vivo biodistribution, Small intestine [4, 8]: 16.44 %ID/g and 9.50 %ID/g and 19.42 %ID/g and 22.39 %ID/g and 10.51 %ID/g and 13.44 %ID/g
- Ex vivo biodistribution, Tumour [4, 8]: 2.58 %ID/g and 2.10 %ID/g and 1.74 %ID/g and 2.60 %ID/g and 3.45 %ID/g and 2.99 %ID/g
- Tumour uptake ([4]; 1 h after i.v. administration): 5.5 ± 0.5 %ID/g and 5.49 ± 0.49 %ID/g
- Tumour-to-blood (T/B) ratio ([4]; 1 h post-administration): 1.53 ± 0.11
- Tumour-to-blood (T/B) ratio ([4]; 2 h post-administration): 4.33 ± 2.1
- Tumour uptake ([4]; 2 h post-administration): 2.2 ± 0.34 %ID/g
- Elimination pathways ([5]; PSN1 tumour-bearing mice, dynamic imaging and biodistribution): hepatobiliary and renal
- Half-life for liver elimination ([5]; PSN1 tumour-bearing mice, i.v.): 31 ± 19 min
- Weighted blood half-life ([5]; PSN1 tumour-bearing mice, i.v., 8.9 μg or 27.5 nmol/kg): 4.3 ± 0.62 min
- Blood clearance, fraction of fast phase [5, 9]: 54 ± 10%
- Blood clearance, fraction of slow phase [5, 9]: 46 ± 10%
- Blood clearance, fast half-life [5, 10]: 1.7 ± 0.44 min
- Blood clearance, slow half-life [5, 10]: 16 ± 10 min
- Tumour-to-muscle (T/M) ratio from PET/CT images ([5]; PSN1 xenografts, 50 min post-injection): 2.3 ± 1.1
- Time of tumour uptake (VOI analysis) ([5]; PSN1 xenografts, dynamic PET): ≤ 10 min
- Time of uptake in kidney and bladder ([5]; dynamic PET, indicates fast renal clearance): ≤ 5 min
- Uptake and retention compared with [TotalF]olaparib [6]: 100 fold
